The record followed here is patent US20180148418A1, “AMIDO-SUBSTITUTED CYCLOHEXANE DERIVATIVES” (Bayer Pharma Aktiengesellschaft, priority 2015, published 2018).

Experiment [1] deals with T1, TNKS2 (Homo sapiens, UniProt Q9H2K2).
T1 construct: purchased BPS Bioscience, San Diego, USA 80572 (TNKS2 Histone Ribosylation Assay Kit)
T1 sequence (Q9H2K2 1-1166): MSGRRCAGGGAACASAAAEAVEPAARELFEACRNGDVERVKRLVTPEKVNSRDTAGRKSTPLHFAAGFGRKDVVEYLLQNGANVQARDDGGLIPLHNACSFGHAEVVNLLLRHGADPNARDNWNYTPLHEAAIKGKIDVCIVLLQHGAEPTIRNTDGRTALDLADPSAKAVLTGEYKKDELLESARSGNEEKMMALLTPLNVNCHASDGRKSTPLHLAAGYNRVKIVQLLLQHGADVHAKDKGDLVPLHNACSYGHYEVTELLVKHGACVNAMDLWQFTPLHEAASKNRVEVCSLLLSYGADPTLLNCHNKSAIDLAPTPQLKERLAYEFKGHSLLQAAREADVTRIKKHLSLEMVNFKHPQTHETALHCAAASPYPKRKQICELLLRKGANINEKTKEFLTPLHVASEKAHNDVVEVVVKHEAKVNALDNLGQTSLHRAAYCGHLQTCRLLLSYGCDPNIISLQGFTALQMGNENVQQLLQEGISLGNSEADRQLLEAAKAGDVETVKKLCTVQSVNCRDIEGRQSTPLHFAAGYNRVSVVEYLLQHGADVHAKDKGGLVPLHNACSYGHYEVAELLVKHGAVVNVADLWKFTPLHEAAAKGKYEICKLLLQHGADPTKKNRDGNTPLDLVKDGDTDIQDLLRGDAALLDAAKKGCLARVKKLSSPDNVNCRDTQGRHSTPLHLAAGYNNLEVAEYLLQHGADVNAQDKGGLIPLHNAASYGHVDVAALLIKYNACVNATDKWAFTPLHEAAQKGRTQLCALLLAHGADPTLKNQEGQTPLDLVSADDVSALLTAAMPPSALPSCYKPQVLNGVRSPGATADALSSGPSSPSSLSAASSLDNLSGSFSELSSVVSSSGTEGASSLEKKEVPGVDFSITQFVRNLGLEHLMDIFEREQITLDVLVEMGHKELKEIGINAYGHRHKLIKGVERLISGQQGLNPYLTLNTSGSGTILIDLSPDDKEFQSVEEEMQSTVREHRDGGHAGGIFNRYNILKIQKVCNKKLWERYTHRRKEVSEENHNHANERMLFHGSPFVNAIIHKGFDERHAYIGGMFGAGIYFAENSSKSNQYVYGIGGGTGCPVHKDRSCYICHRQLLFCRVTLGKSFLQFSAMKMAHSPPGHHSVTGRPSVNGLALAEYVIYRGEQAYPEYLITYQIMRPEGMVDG
Description: TNKS2 Assay B (auto-parsylation, [3H]-NAD+ SPA). The format is biochemical. As to conditions: 6 nM TNKS2, auto-parsylation, over night at room temperature.

Experiment [2] deals with wildtype Wnt signaling cascade. Description: HEK293 TOP assay (Super TopFlash luciferase reporter, Wnt-3a stimulated). The format is cell-based. The conditions noted are these: Homo sapiens, HEK293, 16 h, HEK293 TOP reporter cells, Wnt3a at EC50, 16 hours. Put shortly: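 HEK293 cells stably carrying Super TopFlash (TOP) run in parallel with FOP cells, 10000/well plated 24 h ahead, stimulated with recombinant human Wnt-3a. Compounds tested 50 μM to 15 nM in 3.16-fold steps in CAFTY buffer pH 7.4 with 2 mM Ca^2+ and 0.01% BSA; luciferase read-out.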

The structures appear in SMILES notation.

For `COC(C)(C)CNC(=O)c1nc[nH]c1C(=O)N[C@H]1CC[C@H](C(=O)Nc2cc(C(F)(F)F)ccc2Cl)CC1` [Example 144, N^5-(trans-4-{[2-chloro-5-(trifluoromethyl)phenyl]carbamoyl}cyclohexyl)-N^4-(2-methoxy-2-methylpropyl)-1H-imidazole-4,5-dicarboxamide], the IC50 in experiment [1] is 230 nM; in experiment [2], 250 nM.

Take `CC(C)(O)CNC(=O)c1nc[nH]c1C(=O)N[C@H]1CC[C@H](C(=O)Nc2cc(C(F)(F)F)ccc2Cl)CC1` [Example 145, N^5-(trans-4-{[2-chloro-5-(trifluoromethyl)phenyl]carbamoyl}cyclohexyl)-N^4-(2-hydroxy-2-methylpropyl)-1H-imidazole-4,5-dicarboxamide]: the IC50 in experiment [1] was 280 nM; in experiment [2], 150 nM.

As for `O=C(NCC1CCCO1)c1nc[nH]c1C(=O)N[C@H]1CC[C@H](C(=O)Nc2cc(C(F)(F)F)ccc2Cl)CC1` (stereo partly drawn) [Example 146, N^5-(trans-4-{[2-chloro-5-(trifluoromethyl)phenyl]carbamoyl}cyclohexyl)-N^4-(tetrahydrofuran-2-ylmethyl)-1H-imidazole-4,5-dicarboxamide], the IC50 came to 100 nM in experiment [1] and 720 nM in experiment [2].

On to `CNC(=O)c1nc[nH]c1C(=O)N[C@H]1CC[C@H](C(=O)Nc2ncncc2Cl)CC1` [Example 147, N^5-{trans-4-[(5-chloropyrimidin-4-yl)carbamoyl]cyclohexyl}-N^4-methyl-1H-imidazole-4,5-dicarboxamide], for which the IC50 in experiment [1] turned out to be 77 nM; in experiment [2], 54 nM.

Consider `O=C(N[C@H]1CC[C@]2(CCN(c3ccc(F)cc3Cl)C2=O)CC1)c1cnn2cccnc12` [Example 148, N-[(cis)-2-(2-chloro-4-fluorophenyl)-1-oxo-2-azaspiro[4.5]dec-8-yl]pyrazolo[1,5-a]pyrimidine-3-carboxamide], for which the concentration for half-maximal inhibition (IC50) stood at 1300 nM in experiment [1] and 140 nM in experiment [2].

In the case of `O=C(N[C@H]1CC[C@H](C(=O)Nc2cnc(C(F)(F)F)cc2Cl)CC1)c1cnn2cccnc12` [Example 149, N-(trans-4-{[4-chloro-6-(trifluoromethyl)pyridin-3-yl]carbamoyl}cyclohexyl)pyrazolo[1,5-a]pyrimidine-3-carboxamide], the results for the IC50 in experiment [1] and in experiment [2] were 170 nM and 190 nM, respectively.

Consider `Cc1cc(NC(=O)[C@H]2CC[C@H](NC(=O)c3cnn4cccnc34)CC2)c(Cl)cc1F` [Example 150, N-{trans-4-[(2-chloro-4-fluoro-5-methylphenyl)carbamoyl]cyclohexyl}pyrazolo[1,5-a]pyrimidine-3-carboxamide], for which the IC50 in experiment [1] is 35 nM; in experiment [2] it was 80 nM.

On to `Cc1cc(F)cc(Cl)c1NC(=O)[C@H]1CC[C@H](NC(=O)c2cnn3cccnc23)CC1` [Example 151, N-{trans-4-[(2-chloro-4-fluoro-6-methylphenyl)carbamoyl]cyclohexyl}pyrazolo[1,5-a]pyrimidine-3-carboxamide], for which the IC50 was 150 nM in experiment [1] and 110 nM in experiment [2].

In the case of `CCN(c1ccc(F)cc1Cl)C(=O)[C@H]1CC[C@H](NC(=O)c2cnn3cccnc23)CC1` [Example 154, N-{trans-4-[(2-chloro-4-fluorophenyl)(ethyl)carbamoyl]cyclohexyl}pyrazolo[1,5-a]pyrimidine-3-carboxamide], the IC50 in experiment [1] is 57 nM; in experiment [2], 130 nM.

`CN(c1ccc(F)cc1Cl)C(=O)[C@H]1CC[C@H](NC(=O)c2cnn3cccnc23)CC1` [Example 155, N-{trans-4-[(2-chloro-4-fluorophenyl)(methyl)carbamoyl]cyclohexyl}pyrazolo[1,5-a]pyrimidine-3-carboxamide]: the IC50 in experiment [1] was found to be 91 nM; in experiment [2], 130 nM.

`CN(c1ccccc1)C(=O)[C@H]1CC[C@H](NC(=O)c2cnn3cccnc23)CC1` [Example 156, N-{trans-4-[methyl(phenyl)carbamoyl]cyclohexyl}pyrazolo[1,5-a]pyrimidine-3-carboxamide]: the IC50 was determined as 230 nM in experiment [1] and 190 nM in experiment [2].
